Assay results reported in ChEMBL document CHEMBL3885881, “DrugMatrix”.

Organism: Rattus norvegicus
Assay: DrugMatrix - Regimen: Daily Repeat
Type: toxicity, organism-based, Sprague-Dawley
Set-up: regimen Daily Repeat, gender Male, age 6-8 weeks
Settings: in vivo, po, route oral GAVAGE, […]; for ABSOLUTE BASOPHIL / ABSOLUTE EOSINOPHIL / ABSOLUTE LYMPHOCYTE / ABSOLUTE MONOCYTE / ABSOLUTE SEGMENTED NEUTROPHIL / BASOPHIL / EOSINOPHIL / ERYTHROCYTE COUNT / HEMATOCRIT / HEMOGLOBIN / LEUKOCYTE COUNT / LYMPHOCYTE / MEAN CORPUSCULAR HEMOGLOBIN / MEAN CORPUSCULAR HEMOGLOBIN CONCENTRATION / MEAN CORPUSCULAR VOLUME / MONOCYTE / NEUTROPHIL / NUCLEATED RED BLOOD CELLS / PLATELET COUNT: tissue Blood; for ALANINE AMINOTRANSFERASE / ALBUMIN / ALKALINE PHOSPHATASE / ASPARTATE AMINOTRANSFERASE / BLOOD UREA NITROGEN / CARBON DIOXIDE / CHLORIDE / CHOLESTEROL / CREATINE PHOSPHOKINASE / CREATININE / GLUCOSE / LACTATE DEHYDROGENASE / LIPASE / PHOSPHORUS / POTASSIUM / SODIUM / TOTAL BILIRUBIN / TOTAL PROTEIN / URIC ACID: tissue Plasma
[1] = 52 mg/kg, 72 h, dose level High, time 3 day
[2] = 52 mg/kg, 120 h, dose level High, time 5 day
[3] = 72 h, dose 5.2 mg/Kg, dose level Low, time 3 day
[4] = 120 h, dose 5.2 mg/Kg, dose level Low, time 5 day

CC(C(=O)O)c1cccc(Oc2ccccc2)c1 (configuration not stated) [FENOPROFEN]
ABSOLUTE BASOPHIL [1]: 0 CELLS/uL
ABSOLUTE EOSINOPHIL [1]: 0 CELLS/uL
ABSOLUTE LYMPHOCYTE [1]: 16297.67 CELLS/uL
ABSOLUTE MONOCYTE [1]: 471.33 CELLS/uL
ABSOLUTE SEGMENTED NEUTROPHIL [1]: 2164.33 CELLS/uL
BASOPHIL [1]: 0%
EOSINOPHIL [1]: 0%
ERYTHROCYTE COUNT [1]: 5.47 x10E6/uL
HEMATOCRIT [1]: 33.6%
HEMOGLOBIN [1]: 13.27 G/DL
LEUKOCYTE COUNT [1]: 18.93 x10E3/uL
LYMPHOCYTE [1]: 87.33%
MEAN CORPUSCULAR HEMOGLOBIN [1]: 24.23 pg
MEAN CORPUSCULAR HEMOGLOBIN CONCENTRATION [1]: 39.5 G/DL
MEAN CORPUSCULAR VOLUME [1]: 61.37 fL
MONOCYTE [1]: 2.33%
NEUTROPHIL [1]: 10.33%
NUCLEATED RED BLOOD CELLS [1]: 0 /100WBC
PLATELET COUNT [1]: 1245.33 x10E3/uL
ALANINE AMINOTRANSFERASE [1]: 68.33 u/L
ALBUMIN [1]: 3.93 G/DL
ALKALINE PHOSPHATASE [1]: 437.33 u/L
ASPARTATE AMINOTRANSFERASE [1]: 102 u/L
BLOOD UREA NITROGEN [1]: 14.67 mg/dL
CARBON DIOXIDE [1]: 28.67 mmol/L
CHLORIDE [1]: 102.33 MEQ/L
CHOLESTEROL [1]: 63.33 mg/dL
CREATINE PHOSPHOKINASE [1]: 360.67 u/L
CREATININE [1]: 0.15 mg/dL
GLUCOSE [1]: 149.67 mg/dL
LACTATE DEHYDROGENASE [1]: 593 u/L
LIPASE [1]: 12 u/L
PHOSPHORUS [1]: 11.6 mg/dL
POTASSIUM [1]: 7.04 MEQ/L
SODIUM [1]: 141.5 MEQ/L
TOTAL BILIRUBIN [1]: 0.17 mg/dL
TOTAL PROTEIN [1]: 5.37 G/DL
URIC ACID [1]: 1.53 mg/dL
ABSOLUTE BASOPHIL [2]: 0 CELLS/uL
ABSOLUTE EOSINOPHIL [2]: 54 CELLS/uL
ABSOLUTE LYMPHOCYTE [2]: 12815.33 CELLS/uL
ABSOLUTE MONOCYTE [2]: 148.67 CELLS/uL
ABSOLUTE SEGMENTED NEUTROPHIL [2]: 1848.67 CELLS/uL
BASOPHIL [2]: 0%
EOSINOPHIL [2]: 0.33%
ERYTHROCYTE COUNT [2]: 5.11 x10E6/uL
HEMATOCRIT [2]: 33%
HEMOGLOBIN [2]: 13.3 G/DL
LEUKOCYTE COUNT [2]: 14.87 x10E3/uL
LYMPHOCYTE [2]: 85.67%
MEAN CORPUSCULAR HEMOGLOBIN [2]: 26 pg
MEAN CORPUSCULAR HEMOGLOBIN CONCENTRATION [2]: 40.3 G/DL
MEAN CORPUSCULAR VOLUME [2]: 64.53 fL
MONOCYTE [2]: 1%
NEUTROPHIL [2]: 13%
NUCLEATED RED BLOOD CELLS [2]: 0.33 /100WBC
PLATELET COUNT [2]: 1200 x10E3/uL
ALANINE AMINOTRANSFERASE [2]: 64.67 u/L
ALBUMIN [2]: 4.13 G/DL
ALKALINE PHOSPHATASE [2]: 380.33 u/L
ASPARTATE AMINOTRANSFERASE [2]: 93.33 u/L
BLOOD UREA NITROGEN [2]: 13.33 mg/dL
CARBON DIOXIDE [2]: 23 mmol/L
CHLORIDE [2]: 100.67 MEQ/L
CHOLESTEROL [2]: 57.33 mg/dL
CREATINE PHOSPHOKINASE [2]: 263.67 u/L
CREATININE [2]: 0.17 mg/dL
GLUCOSE [2]: 175 mg/dL
LACTATE DEHYDROGENASE [2]: 284 u/L
LIPASE [2]: 10.67 u/L
PHOSPHORUS [2]: 12 mg/dL
POTASSIUM [2]: 6.69 MEQ/L
SODIUM [2]: 141.5 MEQ/L
TOTAL BILIRUBIN [2]: 0.2 mg/dL
TOTAL PROTEIN [2]: 5.3 G/DL
URIC ACID [2]: 1.77 mg/dL
ABSOLUTE BASOPHIL [3]: 0 CELLS/uL
ABSOLUTE EOSINOPHIL [3]: 60.67 CELLS/uL
ABSOLUTE LYMPHOCYTE [3]: 12618.67 CELLS/uL
ABSOLUTE MONOCYTE [3]: 219.33 CELLS/uL
ABSOLUTE SEGMENTED NEUTROPHIL [3]: 2034.67 CELLS/uL
BASOPHIL [3]: 0%
EOSINOPHIL [3]: 0.33%
ERYTHROCYTE COUNT [3]: 5.49 x10E6/uL
HEMATOCRIT [3]: 35%
HEMOGLOBIN [3]: 14.13 G/DL
LEUKOCYTE COUNT [3]: 14.93 x10E3/uL
LYMPHOCYTE [3]: 84%
MEAN CORPUSCULAR HEMOGLOBIN [3]: 25.83 pg
MEAN CORPUSCULAR HEMOGLOBIN CONCENTRATION [3]: 40.37 G/DL
MEAN CORPUSCULAR VOLUME [3]: 63.93 fL
MONOCYTE [3]: 1.67%
NEUTROPHIL [3]: 14%
NUCLEATED RED BLOOD CELLS [3]: 0 /100WBC
PLATELET COUNT [3]: 1213.67 x10E3/uL
ALANINE AMINOTRANSFERASE [3]: 79.67 u/L
ALBUMIN [3]: 3.83 G/DL
ALKALINE PHOSPHATASE [3]: 345 u/L
ASPARTATE AMINOTRANSFERASE [3]: 100.33 u/L
BLOOD UREA NITROGEN [3]: 10.67 mg/dL
CARBON DIOXIDE [3]: 29 mmol/L
CHLORIDE [3]: 101 MEQ/L
CHOLESTEROL [3]: 66 mg/dL
CREATINE PHOSPHOKINASE [3]: 384 u/L
CREATININE [3]: 0.14 mg/dL
GLUCOSE [3]: 162.33 mg/dL
LACTATE DEHYDROGENASE [3]: 245 u/L
LIPASE [3]: 12.33 u/L
PHOSPHORUS [3]: 11.73 mg/dL
POTASSIUM [3]: 6.15 MEQ/L
SODIUM [3]: 143.37 MEQ/L
TOTAL BILIRUBIN [3]: 0.17 mg/dL
TOTAL PROTEIN [3]: 5.43 G/DL
URIC ACID [3]: 1.5 mg/dL
ABSOLUTE BASOPHIL [4]: 0 CELLS/uL
ABSOLUTE EOSINOPHIL [4]: 43 CELLS/uL
ABSOLUTE LYMPHOCYTE [4]: 9244.67 CELLS/uL
ABSOLUTE MONOCYTE [4]: 125.67 CELLS/uL
ABSOLUTE SEGMENTED NEUTROPHIL [4]: 820 CELLS/uL
BASOPHIL [4]: 0%
EOSINOPHIL [4]: 0.33%
ERYTHROCYTE COUNT [4]: 5.69 x10E6/uL
HEMATOCRIT [4]: 34.97%
HEMOGLOBIN [4]: 13.73 G/DL
LEUKOCYTE COUNT [4]: 10.23 x10E3/uL
LYMPHOCYTE [4]: 90.33%
MEAN CORPUSCULAR HEMOGLOBIN [4]: 24.13 pg
MEAN CORPUSCULAR HEMOGLOBIN CONCENTRATION [4]: 39.3 G/DL
MEAN CORPUSCULAR VOLUME [4]: 61.43 fL
MONOCYTE [4]: 1.33%
NEUTROPHIL [4]: 8%
NUCLEATED RED BLOOD CELLS [4]: 0 /100WBC
PLATELET COUNT [4]: 1094 x10E3/uL
ALANINE AMINOTRANSFERASE [4]: 64 u/L
ALBUMIN [4]: 4.07 G/DL
ALKALINE PHOSPHATASE [4]: 422.67 u/L
ASPARTATE AMINOTRANSFERASE [4]: 91.67 u/L
BLOOD UREA NITROGEN [4]: 12 mg/dL
CARBON DIOXIDE [4]: 28 mmol/L
CHLORIDE [4]: 102.33 MEQ/L
CHOLESTEROL [4]: 57.33 mg/dL
CREATINE PHOSPHOKINASE [4]: 306.67 u/L
CREATININE [4]: 0.15 mg/dL
GLUCOSE [4]: 153 mg/dL
LACTATE DEHYDROGENASE [4]: 198.33 u/L
LIPASE [4]: 11.67 u/L
PHOSPHORUS [4]: 10.13 mg/dL
POTASSIUM [4]: 6.12 MEQ/L
SODIUM [4]: 142.33 MEQ/L
TOTAL BILIRUBIN [4]: 0.13 mg/dL
TOTAL PROTEIN [4]: 5.53 G/DL
URIC ACID [4]: 1.17 mg/dL
